Patent US20240368178A1, “IMIDAZOCYCLIC COMPOUND AND APPLICATION THEREOF” (DONGBAO PURPLE STAR (HANGZHOU) BIOPHARMACEUTICAL CO., LTD., priority 2021, published 2024)

How the values were obtained:
Human-GLP-1 receptor = Human-GLP-1 receptor (Homo sapiens (Human), UniProt P43220); experiment: In vitro cell activity assay (cAMP, HEK293 GLP-1 cells); type: cell-based; settings: cAMP detection
Protocol: Experimental Example 1: In Vitro Cell Activity Assay
The host cell HEK293 for GLP-1 was constructed by WuXi AppTec (Shanghai) Co., Ltd.
cAMP Detection Kit, Cisbio (Cat #62AM4PEJ); 1M HEPES, Invitrogen (Cat #15630-106); 1×HBSS, Invitrogen (Cat #14025); BSA, Sigma (Cat #B2064); IBMX, Sigma (Cat #I5879); Exenatide, Hao Yuan (HY-13443A).
The compounds were prepared into a working solution with a concentration of 30 μM using DMSO. In this assay, each sample was used in an amount of 5 μL.
• 24.5 mL of Hanks Buffer Saline Solution (HBSS), final concentration: lx; • 125 μL of HEPES 1M, final concentration: 5 mM; • 333 μL of 7.5% BSA Solution, final concentration: 0.1%; • 25 μL of IBMX 500 mmol/L, final concentration: 0.5 mmol/L.
Preparation of cAMP assay reagent: 250 μL of cAMP-D2 and 250 μL of anti-cAMP cryptate reagent were added to 4 mL of lysis buffer and mixed gently.
The compound to be tested was diluted 3-fold at 10 points with a starting concentration of 30 μM, and the dilution was completed using Bravo.
Exenatide, used as a control compound, was diluted 3-fold at 10 points with a starting concentration of 500 nM, and the dilution was completed using Bravo. […]
• 1) A GLP-1 cell cryopreservation tube was rapidly thawed in a 37° C. water bath. • 2) The cell suspension was transferred to a 15 mL Transfer centrifuge tube and gently rinsed with 10 mL of HBSS. • 3) The centrifuge tube was centrifuged at 1000 rpm for 1 minute at room temperature. • 4) The supernatant was discarded. • 5) The cells at the bottom were gently dispersed, then rinsed with 10 mL of HBSS, centrifuged to sedimentation, and finally resuspended in the experimental buffer. • 6) The cell density and activity were measured using Vi-cell. • 7) The concentration of GLP-1 cells was diluted to 2.0*105/mL with the experimental buffer. • 8) […] of the diluted cell suspension was transferred to the OptiPlate-384 plate. • 9) The plate was incubated at room temperature for 30 minutes. […]
TopSeal-A was removed and the result was read in EnVision.

CYP2C19 = CYP2C19 (Homo sapiens (Human), UniProt P33261); experiment: Time-dependent inhibition (TDI) of CYP2C19 in human liver microsomes; type: in vitro ADME
CYP2C19, sequence (P33261 whole entry): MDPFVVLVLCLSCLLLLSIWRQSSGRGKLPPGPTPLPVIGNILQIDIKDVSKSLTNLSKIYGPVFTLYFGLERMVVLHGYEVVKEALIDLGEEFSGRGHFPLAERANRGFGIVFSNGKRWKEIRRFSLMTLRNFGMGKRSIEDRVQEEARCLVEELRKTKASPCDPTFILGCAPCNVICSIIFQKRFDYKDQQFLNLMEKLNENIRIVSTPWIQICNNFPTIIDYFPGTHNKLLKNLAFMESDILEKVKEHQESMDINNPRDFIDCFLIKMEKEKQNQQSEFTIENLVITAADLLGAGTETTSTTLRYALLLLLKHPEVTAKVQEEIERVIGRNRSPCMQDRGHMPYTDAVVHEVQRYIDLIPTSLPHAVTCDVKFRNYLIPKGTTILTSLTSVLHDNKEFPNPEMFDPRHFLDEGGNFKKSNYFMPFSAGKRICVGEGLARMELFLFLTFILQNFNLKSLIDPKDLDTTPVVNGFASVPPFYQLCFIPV
Protocol: The time-dependent inhibitory effect of the test compound on the activity of human liver microsomal cytochrome P450 isoenzyme CYP2C19 was determined.
The experiment was divided into two groups. In the first group, human liver microsomes (HLM) were used as the incubation system. The test articles with a series of concentrations were added to the incubation system, followed by the addition of a coenzyme factor (NADPH) solution. The preincubation was carried out at 37° C. for 30 minutes. After preincubation, a probe substrate solution was added thereto. After a certain period of incubation, the reaction was terminated. The amount of probe substrate metabolites generated in the incubation solution was determined, and the enzyme activity was calculated. In the second group, human liver microsomes (HLM) were used as the incubation system. The test articles with a series of concentrations were added to the incubation system, followed by the addition of potassium phosphate buffer. The preincubation was carried out at 37° C. for 30 minutes. After preincubation, a mixture of NADPH and the probe substrate was added thereto. After a certain period of incubation, the reaction was terminated. The amount of probe substrate metabolites generated in the incubation solution was determined, and the enzyme activity was calculated. […]
Then, 147.5 μL of human liver microsomal working solution was added to the reaction plate, and the reaction plate was placed on ice for use; at this time, 2.50 μL of the test compound (N=1) and the working solution (N=2) of the positive control inhibitor at various concentrations were added to the corresponding wells, and the corresponding organic solvent was added to the group without inhibitors (test compound or positive inhibitor); the reaction plate was incubated for 10 minutes at 37° C., and then 50.0 μL of NADPH solution or potassium phosphate buffer was added to reaction wells of the first or second group, respectively, to start the reaction; the reaction plate was pre-incubated at 37° C. for 30 minutes; 50.0 μL of the substrate solution or a mixture of NADPH and the substrate was added to the reaction wells of the first or second group, respectively, to start the reaction. 20 minutes later, 250 μL of precooled acetonitrile solution (containing internal standards of 200 ng/mL tolbutamide and labetalol) was added to terminate the reaction; the reaction plate was placed on a shaker and shaken for 10 minutes to mix uniformly; then, the plate was centrifuged for 20 minutes at 4° C. and 4000 rpm; 200 μL of the supernatant was added to 200 μL of water to dilute the sample; the plate was finally sealed and shaken for 10 minutes to mix uniformly; the sample was then analyzed by LC/MS/MS.

human hepatocytes = experiment: HMS CLint (liver) hepatocyte metabolic stability, human; type: in vitro ADME
Protocol: (§1) Experimental purpose: to test the metabolic stability of the test sample in human and rat liver cells.
(§2) • (1) test compound (10 mM), reference substance: 7-ethoxycoumarin (30 mM), 7-hydroxycoumarin (reference substance, 30 mM); • mouse hepatocytes with cell viability of 73.8%, supplier Cat No.: BioreclamationlVTM005052; • rat hepatocytes with cell viability of 78.3%, supplier Cat No.: BioreclamationlVTM00005-T; • canine hepatocytes with cell viability of 80.2%, supplier Cat No.: BioreclamationlVTM00205; • monkey liver cells with cell viability of 80.9%, supplier Cat No.: RILD HP—SXH-02M; • human hepatocytes with cell viability of 94.6%, supplier Cat No.: Bioreclamation IVTX008001. • (2) Buffer system:
(§3) Thawing medium: Williams' medium E containing 5% fetal bovine serum, 30% Percoll solution, and other auxiliary materials.
(§4) Incubation medium: Williams' medium E (without phenol red) containing 2 mM L-glutamine and 25 mM 4-(2-hydroxyethyl)-1-piperazineethanesulfonic acid.
(§5) Termination solution: acetonitrile containing 200 ng/mL tolbutamide and labetalol as internal standard. […]
(§6) The residual rates of the test compound and the control compound were determined using the following formula: […]
(§7) The elimination rate constant (k) of the test compound and the control compound in hepatocytes was calculated by plotting the logarithm of the residual rate against time. […]

monkey liver cells = experiment: HMS CLint (liver) hepatocyte metabolic stability, cynomolgus monkey; type: in vitro ADME; settings: cynomolgus monkey hepatocytes
Protocol: as §1, §2, §3, §4, §5, §6, §7

canine hepatocytes = experiment: HMS CLint (liver) hepatocyte metabolic stability, dog; type: in vitro ADME
Protocol: as §1, §2, §3, §4, §5, §6, §7

rat hepatocytes = experiment: HMS CLint (liver) hepatocyte metabolic stability, rat; type: in vitro ADME
Protocol: as §1, §2, §3, §4, §5, §6, §7

[1] = In vivo PK parameter testing in rats; parameters: species or system SD rat; settings: male SD rats
Protocol: (§8) Male SD rats and male cynomolgus monkeys were used as test animals, and the plasma concentration of the compound was determined and the pharmacokinetic behavior was evaluated after a single oral administration.
Two groups of healthy rats (fasted) were administered by intravenous injection (IV) and oral gavage (PO), each group with 2 rats. The vehicle was a mixture of 20% PEG400, 10% solutol, and 70% water. After mixing the compound to be tested with the vehicle, the mixture was vortexed and sonicated to prepare clear solutions of 0.2 mg/mL and 0.5 mg/mL. The intravenous injection dose for rats was 1.0 mg/kg, and the oral gavage dose was 5.0 mg/kg. After administration, the whole blood was collected at the time points of 0.083 hours, 0.25 hours, 0.5 hours, 1.0 hour, 2.0 hours, 4.0 hours, 8.0 hours, 12.0 hours, and 24.0 hours. Plasma was prepared from the whole blood and analyzed for drug concentration by LC-MS/MS.

[2] = In vivo PK parameter testing in cynomolgus monkeys; parameters: species or system cynomolgus monkey; settings: male cynomolgus monkeys
Protocol: as §8
Two groups of healthy male cynomolgus monkeys (fasted) were administered by intravenous injection and oral gavage, each group with 2 monkeys. The vehicle was a 20% hydroxypropyl-β-cyclodextrin aqueous solution. The compound to be tested 002 was mixed with the vehicle, then vortexed, and sonicated to prepare clear solutions of 1.0 mg/mL and 2.0 mg/mL. The intravenous injection dose was 1.0 mg/kg, and the oral gavage dose was 2.0 mg/kg. The compound to be tested 003 was mixed with the vehicle, then vortexed, and sonicated to prepare clear solutions of 0.25 mg/mL and 10.0 mg/mL. The intravenous injection dose was 0.5 mg/kg, and the oral gavage dose was 10.0 mg/kg. After administration, the whole blood was collected at the time points of 0.083 hours, 0.25 hours, 0.5 hours, 1.0 hour, 2.0 hours, 4.0 hours, 8.0 hours, 12.0 hours, and 24.0 hours. Plasma was prepared from the whole blood and analyzed for drug concentration by LC-MS/MS. Parameter meaning: Cmax is the maximum plasma concentration; AUC is the exposure; T1/2 is the half-life; Vd is the apparent volume of distribution; Cl is the clearance rate; F % is the oral bioavailability.

[3] = 30 min preincubation with NADPH
[4] = 30 min preincubation without NADPH

Human-GLP-1 receptor, sequence (P43220 24-463): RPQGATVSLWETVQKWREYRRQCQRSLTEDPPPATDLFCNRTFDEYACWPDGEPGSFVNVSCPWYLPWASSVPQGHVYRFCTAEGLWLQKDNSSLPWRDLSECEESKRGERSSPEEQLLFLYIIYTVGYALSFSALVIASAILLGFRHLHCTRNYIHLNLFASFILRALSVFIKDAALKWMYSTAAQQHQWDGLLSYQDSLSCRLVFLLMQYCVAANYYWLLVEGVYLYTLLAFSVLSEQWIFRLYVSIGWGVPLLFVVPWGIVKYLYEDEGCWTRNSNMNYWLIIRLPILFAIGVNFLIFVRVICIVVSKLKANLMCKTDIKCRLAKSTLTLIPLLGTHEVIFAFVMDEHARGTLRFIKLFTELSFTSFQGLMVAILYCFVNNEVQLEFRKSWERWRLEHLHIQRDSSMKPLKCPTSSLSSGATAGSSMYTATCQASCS

Work on `C[C@]1(c2ccc(Cl)cn2)Oc2cccc(C3CCN(Cc4nc5sc(C(=O)O)c(F)c5n4C[C@@H]4CCO4)CC3)c2O1` (single isomer, unassigned) [Compound 001] yielded an EC50 (Human-GLP-1 receptor) of 0.54 nM.
In the case of `C[C@]1(c2ccc(Cl)cn2)Oc2cccc(C3CCN(Cc4nc5sc(C(=O)O)cc5n4C[C@@H]4CCO4)CC3)c2O1` (single isomer, unassigned) [Compound 002], the EC50 (Human-GLP-1 receptor) is reported as 0.88 nM, the IC50 (CYP2C19; [3]) is reported as 29200 nM and the IC50 (CYP2C19; [4]) is reported as > 50000 nM. The “HMS Human” value (human hepatocytes) was <17.8 mL/min/kg, the “HMS Cynomolgus monkeys” value (monkey liver cells) was <23.0 mL/min/kg and the “HMS Dog” value (canine hepatocytes) was 115.4 mL/min/kg. The “HMS Rat” value (rat hepatocytes) was 138.7 mL/min/kg, the F % ([1]; IV 1.0 mg/kg, PO 5.0 mg/kg) was 27.1% and the Cl ([1]; intravenous 1.0 mg/kg) was 12.0 mL/min/kg. For the same compound, the Vd ([1]; intravenous 1.0 mg/kg) was 0.392 L/kg, the “AUC (PO)” value ([1]; oral gavage 5.0 mg/kg) was 3.439 µM·h and the “T1/2 (PO)” value ([1]; oral gavage 5.0 mg/kg) was 1.61 h. It also gave a F % ([2]; IV 1.0 mg/kg, PO 2.0 mg/kg) of 35.3%, a Cl ([2]; intravenous 1.0 mg/kg) of 0.505 mL/min/kg and a Vd ([2]; intravenous 1.0 mg/kg) of 0.155 L/kg. The “AUC (PO)” value ([2]; oral gavage 2.0 mg/kg) was 42.966 µM·h and the “T1/2 (PO)” value ([2]; oral gavage 2.0 mg/kg) was 11.3 h.
In the case of `C[C@@]1(c2ccc(Cl)cn2)Oc2cccc(N3CCN(Cc4nc5sc(C(=O)O)cc5n4C[C@H]4CCO4)CC3)c2O1` [Compound 003], the EC50 (Human-GLP-1 receptor) is reported as 0.51 nM, the IC50 (CYP2C19; [3]) is reported as > 50000 nM and the IC50 (CYP2C19; [4]) is reported as > 50000 nM. For the same compound, the “HMS Human” value (human hepatocytes) was 19.4 mL/min/kg, the “HMS Cynomolgus monkeys” value (monkey liver cells) was 41.6 mL/min/kg and the “HMS Dog” value (canine hepatocytes) was 58.7 mL/min/kg. The “HMS Rat” value (rat hepatocytes) was 5.1 mL/min/kg, the F % ([2]; IV 0.5 mg/kg, PO 10.0 mg/kg) was 23.6% and the Cl ([2]; intravenous 0.5 mg/kg) was 2.85 mL/min/kg. The Vd ([2]; intravenous 0.5 mg/kg) was 0.489 L/kg, the “AUC (PO)” value ([2]; oral gavage 10.0 mg/kg) was 10.716 µM·h and the “T1/2 (PO)” value ([2]; oral gavage 10.0 mg/kg) was 8.52 h.
